Columns and labels:
[1] = system: ZIKV (African strain MR766); experiment: microbe, parasite or virus in culture; assay type: cell-based, Zika virus
[2] = system: influenza A strains: H1N1 strain A/PR8 and H5N1 strain A/NIBRG-14; assay type: cell-based
[3] = system: influenza B virus strains (B/Mem, B/Wis, B/Bris); assay type: cell-based
influenza B/Mem [4] = assay type: cell-based, influenza B/Memphis/12/97
[5] = mouse, in vivo, iv, 10 mg/kg
influenza B/Mem [6] = assay type: cell-based, influenza B/Memphis/12/97; remark: listed apart in the source
[7] = target: PB2 (FLAG-tagged, A/WSN-FLAG) (Influenza A virus, UniProt P03427); assay type: cell-based, influenza A/WSN/1933(H1N1)
Chain of PB2 (FLAG-tagged, A/WSN-FLAG) (P03427 whole entry, looked up): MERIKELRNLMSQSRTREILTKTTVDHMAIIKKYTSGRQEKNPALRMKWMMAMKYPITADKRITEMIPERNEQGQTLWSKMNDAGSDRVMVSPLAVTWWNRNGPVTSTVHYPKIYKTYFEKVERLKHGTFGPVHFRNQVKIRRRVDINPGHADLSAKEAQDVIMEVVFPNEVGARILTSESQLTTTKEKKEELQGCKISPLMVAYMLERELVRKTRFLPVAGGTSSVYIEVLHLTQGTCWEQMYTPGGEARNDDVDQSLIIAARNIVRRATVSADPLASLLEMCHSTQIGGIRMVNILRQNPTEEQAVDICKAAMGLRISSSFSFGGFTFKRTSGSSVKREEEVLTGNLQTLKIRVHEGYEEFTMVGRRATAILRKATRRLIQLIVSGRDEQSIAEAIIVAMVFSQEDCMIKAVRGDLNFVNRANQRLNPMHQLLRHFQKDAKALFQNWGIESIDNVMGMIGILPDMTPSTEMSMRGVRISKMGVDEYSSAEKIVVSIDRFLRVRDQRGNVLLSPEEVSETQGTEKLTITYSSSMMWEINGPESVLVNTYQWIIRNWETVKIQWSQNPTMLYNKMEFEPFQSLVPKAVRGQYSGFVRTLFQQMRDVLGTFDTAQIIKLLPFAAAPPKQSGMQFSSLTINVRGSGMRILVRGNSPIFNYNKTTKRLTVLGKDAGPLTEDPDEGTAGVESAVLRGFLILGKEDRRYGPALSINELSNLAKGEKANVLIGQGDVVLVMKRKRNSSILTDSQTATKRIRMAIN

influenza B/Mem [8] = system: influenza B/Mem; parameters: species or system BALB/c mice; conditions: mouse, in vivo, iv, 2.5 mg/kg
[9] = system: PB2CB from influenza B/Mem (PB2IBV); assay type: biochemical
[10] = system: influenza A strains (H1N1, H3N2, H3N3, H3N8, H5N1); assay type: cell-based
[11] = target: mouse PrP^C in L929 15.9 and CAD5 cells (Mus musculus, UniProt P04925)
Chain of mouse PrP^C in L929 15.9 and CAD5 cells (P04925 23-230 limits assumed): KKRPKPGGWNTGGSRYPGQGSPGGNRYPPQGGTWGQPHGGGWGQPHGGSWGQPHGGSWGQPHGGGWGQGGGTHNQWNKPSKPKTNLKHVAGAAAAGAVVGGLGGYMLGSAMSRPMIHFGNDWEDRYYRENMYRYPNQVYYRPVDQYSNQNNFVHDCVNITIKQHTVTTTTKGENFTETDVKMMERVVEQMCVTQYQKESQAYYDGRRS

[12] = target: the molecule itself

C[C@@]1(O)[C@H](O)[C@@H](CO)O[C@H]1n1ccc2c(N)ncnc21 [7-DMA, 7-deaza-2′-C-methyladenosine, reference compound]
aspecific toxicity on the mammalian host cell (Vero E6 cells): did not originate from aspecific toxicity
IC50 ([1]; Zika virus, Vero C1008, 48 h, n = 3, read-out: IC50, fraction of ZIKV-infected cells): 4.74 ± 0.31 µM

Ac-RLIQLIVSRPPRLIQLIVSR-NH2 [compound 12]
amount of newly produced virus (TCID50 titration), antiviral screen [2]: showed the most pronounced effect
aspecific cytotoxic effects on MDCK cells (MDCK cells): did not originate from aspecific cytotoxic effects

Ac-WDLIQLIVSDGSDLIQLIVSD-NH2 [12B]
antiviral activity in time of addition assays and pretreatment of influenza B virion particles [3]: showed no antiviral activity
effect on replication of influenza B virus strains [3]: did not interfere with the replication
protection against cytopathic effects of influenza B (influenza B/Mem [4]): no protection against cytopathic effects
blood analysis and histopathological evaluation of all major organs [5]: revealed no abnormalities
aspecific toxic effects on HEK 293T cells (HEK 293T cells): no aspecific toxic effects were observed
influenza B replication in multicycle replication assay (influenza B/Mem [6]): unaffected
aspecific toxic effects on MDCK cells (MDCK cells): no aspecific toxic effects were observed
interference with ZIKV replication [1]: no interference with ZIKV replication is observed
soluble PB2 in infected cells [7]: reduction of soluble PB2
influenza B replication in the murine infection model (viral load in lungs) (influenza B/Mem [8]): not affected
effect on aggregation or conformational stability of PB2IBV (Th-T, ANS) [9]: showed no effect on the aggregation or conformational stability
antiviral activity on influenza A strains with APR polymorphisms [10]: retains activity against all these influenza A strains
conversion of PrP to the aggregated prion state (PrP^SC) [11]: incapable to convert PrP

B1: peptide 12B (peptide)
peptide: WDLIQLIVSDGSDLIQLIVSD
notes: also called amyloid peptide 12B; synthetic amyloid 12B; source: synthetic peptide
binding result [12]: binds
